Data reported in patent publication US20170008921A1, “C-3 NOVEL TRITERPENONE WITH C-28 REVERSE AMIDE DERIVATIVES AS HIV INHIBITORS” (HETERO RESEARCH FOUNDATION, priority 2015, published 2017).

What was measured:
[1] = Cyto-toxicity (MTT assay); assay type: cell-based
[2] = Single dose oral pharmacokinetic study; assay type: in vivo; details: mouse, Mice oral PK @30 mg/kg, plasma, vehicle 10% Solutol+20% PEG; for AUC(0-t): read-out: AUC0-t; for Cmax: read-out: Cmax
Method in brief: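 Rats or mice dosed orally at 30 mg/kg in 10% Solutol+20% PEG. Acetonitrile precipitation, then LC-MS/MS quantification for PK parameters.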

Compound	viability at 4 days, 0.001 µM [1] [%]	viability at 4 days, 0.003 µM [1] [%]	viability at 4 days, 0.01 µM [1] [%]	AUC(0-t) [2] [µg·h/mL]	Cmax [2] [ng/mL]	viability at 4 days, 0.1 µM [1] [%]	viability at 4 days, 1 µM [1] [%]
Cc1noc(C)c1C(=O)NC(C)(C)C(=O)N[C@@]12CC[C@]3(C)[C@H](CC[C@@H]4[C@@]5(C)CC[C@H](OC(=O)[C@H]6C[C@@H](C(=O)O)C6(C)C)C(C)(C)[C@@H]5CC[C@]43C)C1=C(C(C)C)C(=O)C2 [Example 19, (1R,3S)-3-((((3aR,5aR,5bR,7aR,9S,11aR,11bR,13aS)-3a-(2-(3,5-dimethylisoxazole-4-carboxamido)-2-methylpropanamido)-1-isopropyl-5a,5b,8,8,11a-pentamethyl-2-oxo-3,3a,4,5,5a,5b,6,7,7a,8,9,10,11,11a,11b,12,13,13a-octadecahydro-2H-cyclopenta[a]chrysen-9-yl)oxy)carbonyl)-2,2-dimethylcyclobutane-1-carboxylic acid]	79	65	40	93	13900		
Cc1ccc(C(=O)NC2(C(=O)N[C@@]34CC[C@]5(C)[C@H](CC[C@@H]6[C@@]7(C)CC[C@H](OC(=O)[C@H]8C[C@@H](C(=O)O)C8(C)C)C(C)(C)[C@@H]7CC[C@]65C)C3=C(C(C)C)C(=O)C4)CC2)cc1 [Example 40, (1R,3S)-3-((((3aR,5aR,5bR,7aR,9S,11aR,11bR,13aS)-1-isopropyl-5a,5b,8,8,11a-pentamethyl-3a-(1-(4-methylbenzamido)cyclopropane-1-carboxamido)-2-oxo-3,3a,4,5,5a,5b,6,7,7a,8,9,10,11,11a,11b,12,13,13a-octadecahydro-2H-cyclopenta[a]chrysen-9-yl)oxy)carbonyl)-2,2-dimethylcyclobutane-1-carboxylic acid]			26	343	20300	2	1
CC(C)C1=C2[C@H]3CC[C@@H]4[C@@]5(C)CC[C@H](OC(=O)[C@H]6C[C@@H](C(=O)O)C6(C)C)C(C)(C)[C@@H]5CC[C@@]4(C)[C@]3(C)CC[C@@]2(NC(=O)C(C)(C)NC(=O)c2cc(C(C)C)n[nH]2)CC1=O [Example 17, (1R,3S)-3-((((3aR,5aR,5bR,7aR,9S,11aR,11bR,13aS)-1-isopropyl-3a-(2-(3-isopropyl-1H-pyrazole-5-carboxamido)-2-methylpropanamido)-5a,5b,8,8, 11a-pentamethyl-2-oxo-3,3a,4,5,5a,5b,6,7,7a,8,9,10,11,11a,11b,12,13,13a-octadecahydro-2H-cyclopenta[a]chrysen-9-yl)oxy)carbonyl)-2,2-dimethylcyclobutane-1-carboxylic acid]	81	62	26	333	28600		
Cc1ccc(C(=O)NC2(C(=O)N[C@@]34CC[C@]5(C)[C@H](CC[C@@H]6[C@@]7(C)CC[C@H](OC(=O)[C@H]8C[C@@H](C(=O)O)C8(C)C)C(C)(C)[C@@H]7CC[C@]65C)C3=C(C(C)C)C(=O)C4)CC2)cn1 [Example 38, (1R,3S)-3-((((3aR,5aR,5bR,7aR,9S,11aR,11bR,13aS)-1-isopropyl-5a,5b,8,8,11a-pentamethyl-3a-(1-(6-methylnicotinamido)cyclopropane-1-carbox amido)-2-oxo-3,3a,4,5,5a,5b,6,7,7a,8,9,10,11,11a,11b,12,13,13a-octadecahydro-2H-cyclopenta[a]chrysen-9-yl)oxy)carbonyl)-2,2-dimethylcyclobutane-1-carboxylic acid]			20	114	10100	9	2
Cc1cccc(NC(=O)NC(C)(C)C(=O)N[C@@]23CC[C@]4(C)[C@H](CC[C@@H]5[C@@]6(C)CC[C@H](OC(=O)[C@H]7C[C@@H](C(=O)O)C7(C)C)C(C)(C)[C@@H]6CC[C@]54C)C2=C(C(C)C)C(=O)C3)n1 [Example 72, (1R,3S)-3-((((3aR,5aR,5bR,7aR,9S,11aR,11bR,13aS)-1-isopropyl-5a,5b,8,8,11a-pentamethyl-3a-(2-methyl-2-(3-(6-methylpyridin-2-yl)ureido)propanamido)-2-oxo-3,3a,4,5,5a,5b,6,7,7a,8,9,10,11,11a,11b,12,13,13a-octadecahydro-2H-cyclopenta[a]chrysen-9-yl)oxy)carbonyl)-2,2-dimethylcyclobutane-1-carboxylic acid]	98	84	27	192	15300		
CC(C)C1=C2[C@H]3CC[C@@H]4[C@@]5(C)CC[C@H](OC(=O)[C@H]6C[C@@H](C(=O)O)C6(C)C)C(C)(C)[C@@H]5CC[C@@]4(C)[C@]3(C)CC[C@@]2(NC(=O)C(C)(C)NC(=O)c2ccc(N)nc2)CC1=O [Example 6, (1R,3S)-3-((((3aR,5aR,5bR,7aR,9S,11aR,11bR,13aS)-3a-(2-(6-aminonicotinamido)-2-methylpropanamido)-1-isopropyl-5a,5b,8,8,11a-pentamethyl-2-oxo-3,3a,4,5,5a,5b,6,7,7a,8,9,10,11,11a,11b,12,13,13a-octadecahydro-2H-cyclopenta[a]chrysen-9-yl)oxy)carbonyl)-2,2-dimethylcyclobutane-1-carboxylic acid]			60	100	11100	19	4
CC(C)C1=C2[C@H]3CC[C@@H]4[C@@]5(C)CC[C@H](OC(=O)[C@H]6C[C@@H](C(=O)O)C6(C)C)C(C)(C)[C@@H]5CC[C@@]4(C)[C@]3(C)CC[C@@]2(NC(=O)C(C)(C)NC(=O)c2ccc(C(F)(F)F)cc2)CC1=O [Example 25, (1R,3S)-3-((((3aR,5aR,5bR,7aR,9S,11aR,11bR,13aS)-1-isopropyl-5a,5b,8,8,11a-pentamethyl-3a-(2-methyl-2-(4-(trifluoromethyl)benzamido)propan amido)-2-oxo-3,3a,4,5,5a,5b,6,7,7a,8,9,10,11,11a,11b,12,13,13a-octadecahydro-2H-cyclopenta[a]chrysen-9-yl)oxy)carbonyl)-2,2-dimethylcyclobutane-1-carboxylic acid]			31	336	24000	6	2
Cc1occc1C(=O)NC(C)(C)C(=O)N[C@@]12CC[C@]3(C)[C@H](CC[C@@H]4[C@@]5(C)CC[C@H](OC(=O)[C@H]6C[C@@H](C(=O)O)C6(C)C)C(C)(C)[C@@H]5CC[C@]43C)C1=C(C(C)C)C(=O)C2 [Example 30, (1R,3S)-3-((((3aR,5aR,5bR,7aR,9S,11aR,11bR,13aS)-1-isopropyl-5a,5b,8,8,11a-pentamethyl-3a-(2-methyl-2-(2-methylfuran-3-carboxamido)propan amido)-2-oxo-3,3a,4,5,5a,5b,6,7,7a,8,9,10,11,11a,11b,12,13,13a-octadecahydro-2H-cyclopenta[a]chrysen-9-yl)oxy)carbonyl)-2,2-dimethylcyclobutane-1-carboxylic acid]			30	477	23000	3	2
Cc1ccc(NC(=O)NC(C)(C)C(=O)N[C@@]23CC[C@]4(C)[C@H](CC[C@@H]5[C@@]6(C)CC[C@H](OC(=O)[C@H]7C[C@@H](C(=O)O)C7(C)C)C(C)(C)[C@@H]6CC[C@]54C)C2=C(C(C)C)C(=O)C3)cn1 [Example 71, (1R,3S)-3-((((3aR,5aR,5bR,7aR,9S,11aR,11bR,13aS)-1-isopropyl-5a,5b,8,811a-pentamethyl-3a-(2-methyl-2-(3-(6-methylpyridin-3-yl)ureido)propanamido)-2-oxo-3,3a,4,5,5a,5b,6,7,7a,8,9,10,11,11a,11b,12,13,13a-octadecahydro-2H-cyclopenta[a]chrysen-9-yl)oxy)carbonyl)-2,2-dimethylcyclobutane-1-carboxylic acid]			41	130	19300	5	3
CC(C)C1=C2[C@H]3CC[C@@H]4[C@@]5(C)CC[C@H](OC(=O)[C@H]6C[C@@H](C(=O)O)C6(C)C)C(C)(C)[C@@H]5CC[C@@]4(C)[C@]3(C)CC[C@@]2(NC(=O)C2(NC(=O)c3ccc(Cl)cc3)CC2)CC1=O [Example 37, (1R,3S)-3-((((3aR,5aR,5bR,7aR,9S,11aR,11bR,13aS)-3a-(1-(4-chlorobenzamido)cyclopropane-1-carboxamido)-1-isopropyl-5a,5b,8,8,11a-pentamethyl-2-oxo-3,3a,4,5,5a,5b,6,7,7a,8,9,10,11,11a,11b,12,13,13a-octadecahydro-2H-cyclopenta[a]chrysen-9-yl)oxy)carbonyl)-2,2-dimethylcyclobutane-1-carboxylic acid]			26	874	38800	4	1
Cc1ccc(C(=O)NC2(C(=O)N[C@@]34CC[C@]5(C)[C@H](CC[C@@H]6[C@@]7(C)CC[C@H](OC(=O)[C@H]8C[C@@H](C(=O)O)C8(C)C)C(C)(C)[C@@H]7CC[C@]65C)C3=C(C(C)C)C(=O)C4)CCC2)cn1 [Example 43, (1R,3S)-3-((((3aR,5aR,5bR,7aR,9S,11aR,11bR,13aS)-1-isopropyl-5a,5b,8,8,11a-pentamethyl-3a-(1-(6-methylnicotinamido)cyclobutane-1-carboxamido)-2-oxo-3,3a,4,5,5a,5b,6,7,7a,8,9,10,11,11a,11b,12,13,13a-octadecahydro-2H-cyclopenta[a]chrysen-9-yl)oxy)carbonyl)-2,2-dimethylcyclobutane-1-carboxylic acid]			76	320	31300	26	3
